The values that follow come from patent publication US11938106B2, “Treatment of tinnitus using glutamate receptor agonists” (Northeast Ohio Medical University, priority 2016, dated 2024).

A short description of experiment [1]: Acoustic startle reflex (startle input/output function). It counts as in vivo, mouse. Particulars: in 6 out of 7 mice tested, FIG. 14A, 30 min after drug administration. On the procedure: (§1) Adult CBA/CaJ mice were used for the study. […] Injection was performed remotely via an intravenous catheter inserted into the tail vein. Spontaneous firing rates of IC neurons were measured and compared before, during, and after of drug injection. To test whether this drug is affecting general sound processing in the auditory system of mice, the acoustic startle reflex and gap detection performance were also assessed.
(§2) The animals used were CBA/CaJ male mice, 8 months to 1.5 years old. Extracellular recording was carried out using Quartz micropipettes filled with 1M potassium acetate solution, 10-20 M ohms. Local field potential (LFP) was evaluated using a chronically implanted 4 channel multi-electrode array chronically implanted into IC in a freely moving animal via wireless recording system. For drug administration, the Group II mGluR agonist was administered via intravenous (3.5 mg/kg) or intraperitoneal (5 mg/kg) injections while recording neural activity. To evaluate startle input/output function, startle intensities were randomized within the range from 70 dB to 120 dB SPL. Startle was a broad band noise 20 ms duration. Inter-trial intervals were pseudo randomized between 15 and 25 sec. For gap detection, two trials were carried out. […]

The nature of experiment [2]: Gap detection performance for behavioral assessment of tinnitus in the tinnitus mouse model. Particulars: one mouse, FIG. 17. It counts as in vivo. On the procedure: Mice were assessed for tinnitus 3 months after exposure. The ability of mice to detect a gap of silence preceding the startle stimulus was determined using commercial hardware/software equipment from Kinder Scientific, Inc. Mice were placed in a small restrainer situated on a plate with a pressure sensor. Any animal motion was detected by the sensor which measured its amplitude and stored data on the computer hard drive. Kinder Scientific software was used to generate a sequence of stimulus trials including a startle stimulus presented alone (STARTLE) and a startle stimulus paired with a gap (GAP+STARTLE) embedded into continuous background noise. The background consisted of narrow-band (1/3 octave) noise centered at six different frequencies (10, 12.5, 16, 20, 25, and 31.5 kHz). […]
Therefore, the data in each session were statistically analyzed to remove outliers (Grubbs' test for outliers). […] To calculate the GAP+STARTLE/STARTLE ratio we calculated the mean for all STARTLE values. […]
The presence of tinnitus in each mouse is assessed by pre-pulse inhibition of the acoustic startle reflex using the procedure developed by Turner et al. Turner et al., Behav Neurosci 120:188-195 (2006). […] The inventor measured the ratio of the startle response amplitude when preceded by a gap of silence over the startle response amplitude without preceded gap. […]

For experiment [3], the system named is inferior colliculus (auditory midbrain). Briefly: Local field potentials (sound evoked activity) recorded in the IC of awake mice. Particulars: systemic administration, FIG. 13. It counts as in vivo, mouse. The method, then: FIG. 13 provides graphs showing that a group II mGluR agonist enhances of sound evoked activity in the IC. Local field potentials (LFPs) recorded in the IC of awake mice in response to 30 ms wideband noise (1-100 kHz, 80 dB SPL) recorded before, 30 min and 90 min after drug administration. LFPs shown here were generated based on 130 repetitions. SEMs are shown by grey
as §2, with “out. Trial I—The acoustic startle (110 dB SPL, 20 ms duration, wideband noise) imbedded in continuous background noise (65 dB SPL, third octave, centered at 10, 12.5, 16, 20, 25, and 31.5 kHz).” for “out.”

For experiment [4], the system named is IC neurons. Briefly: Extracellular recording of neuronal firing in the inferior colliculus of awake mice before, during and after systemic drug injection. It counts as in vivo, mouse. On the procedure: as §1
The animals used were CBA/CaJ male mice, 8 months to 1.5 years old. Extracellular recording was carried out using Quartz micropipettes filled with 1M potassium acetate solution, 10-20 M ohms. Local field potential (LFP) was evaluated using a chronically implanted 4 channel multi-electrode array chronically implanted into IC in a freely moving animal via wireless recording system. For drug administration, the Group II mGluR agonist was administered via intravenous (3.5 mg/kg) or intraperitoneal (5 mg/kg) injections while recording neural activity. To evaluate startle input/output function, startle intensities were randomized within the range from 70 dB to 120 dB SPL. Startle was a broad band noise 20 ms duration. Inter-trial intervals were pseudo randomized between 15 and 25 sec. For gap detection, two trials were carried out. Trial I—The acoustic startle (110 dB SPL, 20 ms duration, wideband noise) imbedded in continuous background noise (65 dB SPL, third octave, centered at 10, 12.5, 16, 20, 25, and 31.5 kHz). Trial II—Trial I paired with a 20 ms gap embedded into background noise and presented 100 ms before the startle. Inter-trial intervals were pseudo randomized between 10 and 17 sec.

Experiment [5] in a line: Gap detection performance (gap-induced suppression of acoustic startle) in mice. It counts as in vivo, mouse. To be noted: 7 mice, FIG. 14B, 30 min after drug administration. On the procedure:
as §1, §2

Turning to `N[C@@]1(C(=O)O)CC[C@H]2[C@H](C(=O)O)[C@H]21` [LY354740, (1S,2S,5R,6S)-2-Aminobicyclo[3.1.0]hexane-2,6-dicarboxylic acid], in experiment [1], the “increase of magnitude of startle responses” value is on record as “at least 20%”. Further, in experiment [2], the “gap detection performance after systemic injection” value is reported as “improvement of gap detection in this mouse to the control level”. Moreover, the “effect on sound evoked activity” value in experiment [3] is listed as “did not change or slightly increased”. In experiment [4] (injected IV), the “duration of suppression of spontaneous activity” value is “several tens of minutes” and the “time after injection to suppression of spontaneous activity” value was “Several seconds”. Moreover, in experiment [4] (injected IV, vast majority of IC neurons, awake mice), the “effect on spontaneous activity in IC neurons” value was “near complete suppression”. Further, in experiment [4] (single IC neuron, FIG. 12), the “time after systemic drug administration at which background firing was suppressed” value is recorded as “About 5 min” and the “time until rate of background activity almost recovered to pre-drug level” value is given as “about 2 hours”. In addition, the “effect on sound-evoked firing” value in experiment [4] (single IC neuron, FIG. 12, systemic administration) was “unaffected”. Further, the “effect on spontaneous activity in auditory neurons” value in experiment [4] (systemic activation of group II mGluRs, FIG. 10, 15) is “dramatically suppressed”. Also, in experiment [5], the “effect on gap detection performance” value is listed as “not affected”.
